Measurements taken from ChEMBL document CHEMBL6134779, “Design of Proteolytic-Resistant Antifungal Peptides by Utilizing Minimum d-Amino Acid Ratios” (J Med Chem, 2024).
In brackets after ≈: the same amount, converted by molar mass.

Tests used:
Candida albicans [1] = assay: Antifungal activity against Candida albicans CGMCC 2.2086 assessed as inhibition of fungal growth incubated for 48 hrs; type: functional
Candida tropicalis = assay: Antifungal activity against Candida tropicalis CGMCC 2.1975 assessed as inhibition of fungal growth incubated for 48 hrs; type: functional
Candida albicans [2] = assay: Antifungal activity against Candida albicans SP3902 assessed as inhibition of fungal growth incubated for 48 hrs; type: functional
Candida albicans [3] = assay: Antifungal activity against Candida albicans SP3903 assessed as inhibition of fungal growth incubated for 48 hrs; type: functional
Candida albicans [4] = assay: Antifungal activity against Fluconazole-resistant Candida albicans 58288 assessed as inhibition of fungal growth incubated for 48 hrs; type: functional
Candida albicans [5] = assay: Antifungal activity against Candida albicans SP3876 assessed as inhibition of fungal growth incubated for 48 hrs; type: functional
Candida albicans [6] = assay: Antifungal activity against Candida albicans SP3931 assessed as inhibition of fungal growth incubated for 48 hrs; type: functional
Candida albicans [7] = assay: Antifungal activity against Candida albicans 14936 assessed as inhibition of fungal growth incubated for 48 hrs; type: functional
Candida albicans [8] = assay: Antifungal activity against Candida albicans 17546 assessed as inhibition of fungal growth incubated for 48 hrs; type: functional
Candida albicans [9] = assay: Antifungal activity against Fluconazole-resistant Candida albicans 56214 assessed as inhibition of fungal growth incubated for 48 hrs; type: functional
Candida albicans [10] = assay: Antifungal activity against Candida albicans 56452 assessed as inhibition of fungal growth incubated for 48 hrs; type: functional
Candida parapsilosis = assay: Antifungal activity against Candida parapsilosis CGMCC 2.3989 assessed as inhibition of fungal growth incubated for 48 hrs; type: functional; settings: Lodderomyces parapsilosis
[11] = Hemolytic activity in human red blood cells assessed as hemolysis incubated for 1 hr; type: toxicity, cell-based, Erythrocyte
[12] = Hemolytic activity in human red blood cells assessed as hemolysis rate at 512 uM incubated for 1 hr relative to control; type: toxicity, cell-based, Erythrocyte; settings: read-out: Activity
Candida albicans [13] = assay: Antifungal activity against Candida albicans CGMCC 2.2086 assessed as inhibition of fungal growth incubated for 48 hrs in presence of NaCl; type: functional
Candida albicans [14] = assay: Antifungal activity against Candida albicans CGMCC 2.2086 assessed as inhibition of fungal growth incubated for 48 hrs in presence of KCl; type: functional
Candida albicans [15] = assay: Antifungal activity against Candida albicans CGMCC 2.2086 assessed as inhibition of fungal growth incubated for 48 hrs in presence of NH4Cl; type: functional
Candida albicans [16] = assay: Antifungal activity against Candida albicans CGMCC 2.2086 assessed as inhibition of fungal growth incubated for 48 hrs in presence of MgCl2; type: functional
Candida albicans [17] = assay: Antifungal activity against Candida albicans CGMCC 2.2086 assessed as inhibition of fungal growth incubated for 48 hrs in presence of ZnCl2; type: functional
Candida albicans [18] = assay: Antifungal activity against Candida albicans CGMCC 2.2086 assessed as inhibition of fungal growth incubated for 48 hrs in presence of FeCl3; type: functional
Candida albicans [19] = assay: Antifungal activity against Candida albicans CGMCC 2.2086 assessed as inhibition of fungal growth incubated for 48 hrs in presence of CaCl2; type: functional
[20] = Stability of the compound in NaCl assessed as change in secondary structure by CD spectra analysis; type: physicochemical
[21] = Stability of the compound in KCl assessed as change in secondary structure by CD spectra analysis; type: physicochemical
[22] = Stability of the compound in NH4Cl assessed as change in secondary structure by CD spectra analysis; type: physicochemical
[23] = Stability of the compound in MgCl2 assessed as change in secondary structure by CD spectra analysis; type: physicochemical
[24] = Stability of the compound in ZnCl2 assessed as change in secondary structure by CD spectra analysis; type: physicochemical
[25] = Stability of the compound in FeCl3 assessed as change in secondary structure by CD spectra analysis; type: physicochemical
[26] = Stability of the compound in CaCl2 assessed as change in secondary structure by CD spectra analysis; type: physicochemical

| SMILES | MIC95 (Candida albicans [1]) [µM] | MIC95 (Candida tropicalis) [µM] | MIC95 (Candida albicans [2]) [µM] | MIC95 (Candida albicans [3]) [µM] | MIC95 (Candida albicans [4]) [µM] | MIC95 (Candida albicans [5]) [µM] | MIC95 (Candida albicans [6]) [µM] | MIC95 (Candida albicans [7]) [µM] | MIC95 (Candida albicans [8]) [µM] | MIC95 (Candida albicans [9]) [µM] | MIC95 (Candida albicans [10]) [µM] | MIC95 (Candida parapsilosis) [µM] | HC50 at 1 h [11] [µM] | hemolysis at 1 h, 512 µM [12] [%] | MIC95 (Candida albicans [13]) [µM] | MIC95 (Candida albicans [14]) [µM] | MIC95 (Candida albicans [15]) [µM] | MIC95 (Candida albicans [16]) [µM] | MIC95 (Candida albicans [17]) [µM] | MIC95 (Candida albicans [18]) [µM] | also measured |
| --- | --- | --- | --- | --- | --- | --- | --- | --- | --- | --- | --- | --- | --- | --- | --- | --- | --- | --- | --- | --- | --- |
| CC(C)[C@H](N)C(=O)N[C@H](C(=O)N[C@H](CCCNC(=N)N)C(=O)N[C@@H](CCCNC(=N)N)C(=O)N[C@@H](Cc1c[nH]cn1)C(=O)N[C@H](C(=O)N[C@H](C(N)=O)C(C)C)C(C)C)C(C)C | > 64 | 64 (≈ 55.2 µg/mL) | > 64 | > 64 | > 64 | > 64 | > 64 | > 64 | > 64 | > 64 | > 64 | > 64 | > 512 | -0.02 | > 64 | > 64 | > 64 | > 64 | > 64 | > 64 | MIC95 (Candida albicans [19]): > 64 µM; Stability [20]: Unstable; Stability [21]: Stable; Stability [22]: Stable; Stability [23]: Stable; Stability [24]: Stable; Stability [25]: Stable; Stability [26]: Stable |
| CC(C)[C@H](N)C(=O)N[C@H](C(=O)N[C@H](CCCNC(=N)N)C(=O)N[C@@H](CCCNC(=N)N)C(=O)N[C@@H](Cc1c[nH]cn1)C(=O)N[C@H](C(=O)N[C@H](C(=O)N[C@H](C(=O)N[C@H](C(=O)N[C@H](CCCNC(=N)N)C(=O)N[C@@H](CCCNC(=N)N)C(=O)N[C@@H](Cc1c[nH]cn1)C(=O)N[C@H](C(=O)N[C@H](C(N)=O)C(C)C)C(C)C)C(C)C)C(C)C)C(C)C)C(C)C)C(C)C | > 64 | 4 (≈ 6.84 µg/mL) | > 64 | > 64 | > 64 | > 64 | > 64 | > 64 | 64 (≈ 109 µg/mL) | > 64 | > 64 | > 64 | > 512 | -1.2 | > 64 | > 64 | 64 | > 64 | > 64 | > 64 | MIC95 (Candida albicans [19]): > 64 µM; Stability [20]: Unstable; Stability [21]: Stable; Stability [22]: Stable; Stability [23]: Stable; Stability [24]: Stable; Stability [25]: Stable; Stability [26]: Stable |
| CC[C@H](C)[C@H](N)C(=O)N[C@H](C(=O)N[C@H](CCCNC(=N)N)C(=O)N[C@@H](CCCNC(=N)N)C(=O)N[C@@H](Cc1c[nH]cn1)C(=O)N[C@H](C(=O)N[C@H](C(N)=O)[C@@H](C)CC)[C@@H](C)CC)[C@@H](C)CC | > 64 | 64 (≈ 58.8 µg/mL) | 64 (≈ 58.8 µg/mL) | > 64 | > 64 | > 64 | > 64 | > 64 | > 64 | > 64 | > 64 | > 64 | > 512 | -1.57 | > 64 | > 64 | > 64 | > 64 | > 64 | > 64 | MIC95 (Candida albicans [19]): > 64 µM; Stability [20]: Unstable; Stability [21]: Stable; Stability [22]: Stable; Stability [23]: Stable; Stability [24]: Stable; Stability [25]: Stable; Stability [26]: Stable |
